Measurements: patent US4442093A, “Method for administering 24,25-dihydroxycholecalciferol to persons suffering from hypercalcemia” (Kureha Kagaku Kogyo Kabushiki Kaisha, priority 1981, dated 1984)
Read-outs that look alike come from different tables or passages of the source. No end group written: not given here.

Assays:
blood sugar level = experiment: Blood sugar in patients (Example 23); format: in vivo, human; conditions: patients suffering from glycosuria
Protocol: Three patients shown in Table 17 were treated by oral administration of a daily dose of 4 to 6 micrograms of 24R,25-(OH)2 -D3 in a form of the soft capsule composition obtained in Example 6 for 3 continuous weeks. After the completion of administration, the patient was fasted for a night and their blood specimen was collected at 11:00 a.m. in the next morning.
Effectiveness of reducing blood sugar level (ERBS) is calculated from the […]

calcium level in serum [1] = conditions: normal person, 250 micrograms oral; cited from earlier work
calcium level in serum [2] = conditions: healthy dog, continuous injection 20 min into thyroid artery; cited from earlier work
calcium level in serum [3] = conditions: patients suffering from hypocalcemia; cited from earlier work
calcium level in serum [4] = conditions: dog with hyper-parathyreosis, thyroid arterial route; cited from earlier work
tumour = experiment: Anti-tumour experiments using mouse and rat as the host; format: in vivo
[5] = 30-day repeated oral administration toxicity (Example 26); format: in vivo, ICR mouse; conditions: 1 mg/kg/day, 30 days
Protocol: 24R,25-(OH)2 -D3 was dissolved in Panacete® 810 containing 1% by weight of ethanol, and the solution was forcibly p.o. administered once a day for 30 continuous days to each male or female ICR mouse of the groups shown in Table 20 at each one of the daily dose rates also shown in Table 20.
As the control, Panacete 810 was solely and forcibly p.o. administered to the mice of the same strain once a day for 30 continuous days.

magnesium level in serum [6] = conditions: thyroidectomized and parathyroidectomized rats, administered once; cited from earlier work
magnesium level in serum [7] = conditions: bilateral nephrectomy rats; cited from earlier work
thymic cells = experiment: Pattern of the size of thymic cells by FACS (Example 12); format: in vivo, rats; conditions: 100 µg/kg/day oral 12 days with puromycin aminonucleoside
Protocol: After feeding the rats (the same number and the same grouping) of the same strain and treating them in the same manner as in Example 11, their thymus was resected, and an analysis of the pattern of the size of the thymic cells was carried out while using Fluorescence Activated Cell Sorter (FACS II, made by Becton-Dickinson Co.) as follows:
After loosing the resected thymus in phosphate buffer solution sufficiently with a pincette, pipetting well and passing the mixture through a standard #200 Tyler stainless steel mesh, the filtrate was treated with an aqueous 0.83% by weight ammonium chloride buffer solution containing tris-hydroxyaminomethane to carry out hemolysis of the erythrocytes intermingled therein followed by three times of washing with the phosphate buffer solution. After adjusting the concentration of the thus obtained thymic cell to 5×10^6 cells/ml with the addition of the phosphate buffer solution, the abovementioned analysis was carried out. The ratio of the number of living thymic cells to the total number of the thus obtained thymic cells was confirmed to be higher than 95% after staining with trypan blue and counting under microscope.

thymus = experiment: Weight ratio of thymus to body and number of thymocytes in rats given puromycin aminonucleoside (Example 11); format: in vivo, male JCL-Wistar rats; conditions: 100 µg/kg/day oral 12 days with puromycin aminonucleoside 15 mg/kg s.c.
Protocol: Thirty-two male JCL-Wistar rats in tenth week after birth were used in the present test while keeping them in a room at 21±1° C. and 60±5% RH with solid diet (CE 2) and water taken ad lib.
They were divided equally into 4 groups (one group consisting of 8 animals), their treatments in the test being as follows:
subcutaneous injection of puromycin aminonucleoside as in the second group and oral administration of 24R,25-(OH)2 -D3 dissolved in Panacete 810 once a day at a daily dose rate of 100 micrograms/kg for continuous 12 days.
subcutaneous injection of puromycin aminonucleoside as in the second group and oral administration of 24S,25-(OH)2 -D3 dissolved in Panacete 810 once a day at a daily dose rate of 100 micrograms/kg for continuous 12 days.
After uniformly loosing the thymus in phosphate buffer solution with a forcets and fully pipetting, the mixture was filtered through a stainless steel mesh (Tylar standard #200) and the filtrate containing the thymic cells was stained with Turk's solution. The thus stained specimen was subjected to counting under a microscope.

gastric ulcer = experiment: Prevention of gastric ulcer due to pyloric ligation (Example 9); format: in vivo, male Wistar rats; conditions: 200 µg/kg i.p. once after pyloric ligation, 15 h
Protocol: Twenty male Wistar rats of average body weight of 250 g were divided equally into two groups, and used in the following test:
After 36 hour fasting, all the rats were subjected to pyloric ligation, and the rats of the first group were administered with 2 ml/kg of Panacete®810 (triglyceride ester of C8 and C10 -fatty acid, made by Nippon Oil & Fats Co., Ltd.) containing 0.2% by weight of ethanol intraperitoneally once just after ligation. The rats of the second group were administered with 24R,25-(OH)2 -D3 dissolved in Panacete®810 containing 0.2% by weight of ethanol intraperitoneally at a dose rate of 200 micrograms/kg body weight once just after ligation. After 15 hours of administration, all the rats were subjected to gastrectomy, and the presence or absence of the gastroparietal ulcer was examined on all the resected stomach.
As a result, the occurrence of gastric ulcer was found on 9 rats of 10 rats of the first group, and on 2 rats of 10 rats of the second group.
In a similar test, 24S,25-(OH)2 -D3 was used instead of 24R,25-(OH)2 -D3 to examine its effect in preventing the occurrence of gastric ulcer due to pyloric ligation. As a result, the occurrence of gastric ulcer was recognized on 3 rats of 10 rats of the group similarly treated to those of the second group.

[8] = test system: mononucleates (lymphocytes) of peripheral blood; experiment: Blastoid-transformation of rat lymphocytes in peripheral blood, 3H-TdR uptake (Example 13); format: in vivo
Protocol: The effect of the present compound on the blastoid-transformation of rat lymphocytes in the peripheral blood was examined as follows: After mixing each of the blood specimens taken from the respective rats of the four groups in Example 11 added with heparin and RPMI-1640 culture medium at a weight ratio of 1:1, the mixture was added to Ficoll-Paque solution, and the thus obtained mixture was subjected to centrifugal separation at 400 G for 20 min to collect the layer of mononucleates. After washing the thus collected mononucleates three times with PRMI-1640 culture medium (in a liquid state), the washed mononucleates were suspended into RPMI-1640 culture medium added with 10% by weight of calf serum to be in concentration of 1.5×10^6 cells/ml. Hundred microliters of the thus prepared suspension was placed in the pit of Pharcon microtest II plate, and after adding a substance promoting cell division (hereinafter referred to as mitogen) and RPMI-1640 culture medium added with 10% by weight of calf serum to the thus placed suspension to make the total volume 200 microliters, the thus prepared mixture was incubated for 72 hours under a gas (a 95:5 by volume mixture of air and carbon dioxide saturated with moisture) flow at 37° C. ^3 H-methylthymidine of specific activity of 5 Ci/mmol was added to the mixture during incubation at the time 24 hours before the incubation was over in an amount corresponding to 0.5 micro Ci. After the incubation was over, the cells in the culture were collected by filtering the cultured mixture, and the amount of radioactive isotope uptaken into the cells was determined by a liquid scintillation counter. For reference, the mitogen used in the present test is concanavalin A for T-cell or lipopolysaccharide for B-cell.

calcium level in serum [9] = experiment: Serum calcium in rats made hypercalcemic with Vitamin D3 (Example 1); format: in vivo, male Wistar rats; conditions: for Calcium level in serum: 24R 100 µg/kg oral, calcitonin 4 MRCU/kg s.c.
Protocol: To 16 subgroups of male Wistar rats of body weight of 150±40 g (one subgroup consisting of 5 rats), a solution of Vitamin D3 dissolved in corn oil at 600 micrograms/ml was orally administered once a day for continuous 4 days at a daily dose rate of 0.5 ml/100 g body weight to prepare the rats artifically suffering from hypercalcemia. After one day's fasting from the final administration of Vitamin D3, the calcium level in the serum of each rat of the first subgroup was on the average 13.5±0.4 mg/dl. The remaining 15 subgroups of the rats were divided into 3 groups each consisting of 5 subgroups and subjected to the following tests.
To the rats of the second group, a solution of porcine calcitonin in a physiological saline solution containing 4% by weight of gelatin was subcutaneously injected at a dose rate of 4 MRCU/kg body weight instead of the solution of 24R,25-(OH)2 -D3 and they were treated as those of the first group.
To the rats of the third group, only the same triglyceride ester as in the first group was orally administered, and they are treated in the same manner as in the first group.
The calcium level of the respective sera of the thus collected blood was determined by OCPC method (Orthocresol Phthalein Complexone method) and shown in Table 1.

[10] = test system: inorganic phosphate level in serum; conditions: after its administration; cited from earlier work
[11] = 100 µg/kg/day oral 12 days with puromycin aminonucleoside

C=C1CC[C@H](O)C/C1=C/C=C1\CCC[C@]2(C)[C@@H]([C@H](C)CCC(O)C(C)(C)O)CC[C@@H]12 (some centres unmarked) [24,25-(OH)2 -D3, 24,25-dihydroxycholecalciferol]
blood sugar level (blood sugar level): significant reduction of the blood sugar level was observed | Calcium level in serum (calcium level in serum [1]): did not cause the significant change of calcium level | Calcium level in serum (calcium level in serum [2]): showed a temporary reduction | Calcium level in serum (calcium level in serum [3]): non of them reported the case where the calcium level in the patient's serum showed a significant change | Calcium level in serum (calcium level in serum [4]): did not change the dog's calcium level in serum | anti-tumour effect in vivo (tumour): anti-tumour effect of the compound was confirmed | biochemical examination of the blood and autopsy [5]: any significant abnormal findings were not observed | magnesium clearance (magnesium level in serum [6]): did not affect the magnesium level in serum thereof and the magnesium clearance thereof | magnesium level in serum (magnesium level in serum [6]): did not affect the magnesium level in serum | magnesium level in serum (magnesium level in serum [7]): did not affect significantly the magnesium level in serum

C=C1CC[C@H](O)C/C1=C/C=C1\CCC[C@]2(C)[C@@H]([C@H](C)CC[C@H](O)C(C)(C)O)CC[C@@H]12 [24S,25-(OH)2 -D3]
number ratio of cells a little larger than normal cell to total thymic cells (thymic cells): the same as that of the control group | Number of thymocytes (thymus): (30 ± 4.5) × 10^7 | occurrence of gastric ulcer (gastric ulcer): 3 rats of 10 rats | Uptake of 3H-TdR in presence of Concanavalin A [8, 11]: 3582 ± 362 cpm | Uptake of 3H-TdR in presence of Lipopolysaccharide [8, 11]: 3126 ± 351 cpm | Number of mononucleate (ratio, first group = 1.00) ([8]; po, 0.1 mg/kg, 288 h): 0.58 ± 0.15

calcitonin: porcine calcitonin in physiological saline solution containing 4% by weight of gelatin (CSNLSTCVLSAYWRNLNNFHRFSGMGFGPETP; ends and bridges not checked; cysteine pairing not given here; UniProt P01259 1-32, looked up)
effect on raised serum calcium after 2 hours (calcium level in serum [9]; 4 MRCU/kg s.c.): its effect was not recognized after 2 hours of its administration | Calcium level in serum (calcium level in serum [9]; 2 h after administration): 10.8 ± 0.5 mg/dL | Calcium level in serum (calcium level in serum [9]; 5 h after administration): 13.0 ± 0.4 mg/dL | Calcium level in serum (calcium level in serum [9]; 8 h after administration): 13.4 ± 0.4 mg/dL | Calcium level in serum (calcium level in serum [9]; 12 h after administration): 13.9 ± 0.5 mg/dL | Calcium level in serum (calcium level in serum [9]; 24 h after administration): 13.4 ± 0.4 mg/dL | duration of strong reduction of serum inorganic phosphate level [10]: 2 to 3 h
